Where two headings read alike, the source gives them in different places. e = 2'-O-(2-methoxyethyl) (MOE); {P} = phosphate; f = 2'-fluoro
Experiments:
[1] = Modified ssRNA 5′-phosphate serum stability assay (Example 60); format: in vitro ADME; conditions: full length ssRNA with 5′-terminal phosphate; 10 μM in 95% fresh mouse serum, 37° C., LC/MS
Excerpt: A serum stability assay is useful for evaluating the stability of oligomeric compounds in the presences of nucleases and other enzymes found in serum. For example, the stability of a 5′-terminal phosphate group of an oligomeric compound can be evaluated by assessing the ability of the 5′-terminal phosphate group to remain attached to the oligomeric compound in the presence of serum. Accordingly, a serum stability assay was employed to evaluate the stability of modified ssRNAs having a 5′-terminal phosphate group.
Various modified ssRNAs, shown below, having a 5′-terminal phosphate group (10 μM) were dissolved in 95% of fresh mouse serum and incubated at 37° C. Aliquots of serum (100 μL) were removed after 0, 1, 3, 6 or 24 hours of incubation times. The serum samples were immediately quenched and snap frozen. The samples were extracted by the strong anion exchange (SAX) and octadecylsilyl (C-18) columns. For each incubation time, the amount of full length modified ssRNA having a 5′-terminal phosphate group was determined by LC/MS, and the half-life of the full length modified ssRNA having a 5′ terminal phosphate group was calculated. The results are expressed as half-time (T1/2) in the table below.

human PTEN = experiment: PTEN expression in HeLa cells, ssRNAs vs siRNAs (Example 62); format: cell-based
How it was run: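 HeLa cells treated with antisense strands either as single-stranded RNAs or duplexed with a common sense strand. PTEN mRNA levels normalized; IC50 from linear regression of normalized mRNA against log concentration.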

PTEN [2] = experiment: PTEN mRNA reduction in HeLa cells, dose response (Example 64); format: cell-based, human; conditions: real-time PCR, 1.56-50 nM
Procedure: A dose response experiment was performed targeting PTEN in human HeLa cells to determine the effects of placement of sugar and internucleoside linkages within ssRNAs. More specifically, the modified ssRNAs were tested for their ability to reduce PTEN mRNA in cultured cells. The modified ssRNAs are shown below, and contain 2′-OMe and 2′-fluoro modified nucleosides, two 2′-O-MOE modified nucleosides at the 3′-terminus, and seven phosphorothioate linkages at the 3′-terminus of the ssRNAs.
HeLa cells were treated with ssRNAs shown below at concentrations of 1.56 nM, 3.13 nM, 6.25 nM, 12.5 nM, […] and 50 nM using methods described herein. Levels of mRNA were determined using real-time PCR methods as described herein. The IC50 for each ssRNA was determined.

[3] = ssRNA stability in hepatocyte cell homogenate assay (Example 65); format: in vitro ADME; conditions: mouse hepatocyte homogenate, LC-MS; Test 1
Procedure: Hepatocytes were harvested from bal/c mice in ice-cold hepatocyte wash media (William E Media) with fetal bovine serum, sedimented by centrifugation at 1000 g for 8 minutes and then washed with hepatocyte wash media. Hepatocytes were homogenized with RIPA buffer (50 mM Tris pH 7.5, 10 mM MgCl2, 150 mM NaCl, 0.5% NP-40 alternative, one tablet of Roche protease inhibitor #11836170001), and centrifuged at 14000 g for 15 minutes at 4° C. and the supernatant was removed and stored in ice. Protein concentration (BSA mg/mL) was determined with Bradford assay and adjusted to a final protein concentration of 2 mg/mL by addition of Ripa buffer volume or cell homogenate volume.
[…] were homogenized in a homogenation buffer (20 mM Tris, pH 8, 20 mM EDTA and 0.1 M NaCl in 0.5% NP-40) at time points 0, 5, 10, 20, 30, 40 and 60 minutes (Exception: 06/408877 at time points 0, 15, 30, 60, 120 and 240 mins, 06/409044, at time points 0, 0.5, 1, 2, 4, 8, and 18 hours). An internal standard (18/355868, a 27-mer, 2′-O-methoxyethyl-modified phosphorothioate oligonucleotide, or 19/116847, a 5-10-5 gappmer, 2′-O-methoxyethyl-modified phosphorothioate oligonucleotide) with concentration at 20 ug/g was added prior to extraction. Tissue samples were extracted with 70 μL of NH4OH and 240 μL of phenol/chloroform/isoamyl alcohol (25:24:1). The supernatant was removed after centrifugation at 14000 rpm for 2 min. The remaining extractant was vortexed with an additional […] of water and the aqueous layer was removed and combined with the supernatant after centrifugation at 14000 rpm for 2 minutes.
Triethylammonium acetate solution at 1M ([…]) was added to the supernatant. The aqueous layer of the mixture was loaded onto the pre-conditioned Biotage™ Phenyl Solid Phase Extraction Plate (SPE plate) after centrifugation at 9000 rpm for 20 minutes. The SPE plate was washed several times with water. The sample was then eluted with 1.5 mL of 1% TEA in 90% MeOH and filtered through the Protein Precipitation Plate (Phenomenex™). The elutent was evaporated to dryness and diluted to 200 μL with 50% quenching buffer (8 M urea, 50 mM EDTA) and water before sample injection.
An Agilent 1100 Series LC/MSD system was connected in-line to a mass spectrometry. Mass spectrometer was operated in the electrospray negative ionization mode. The nebulizer nitrogen gas was set at […] and the drying nitrogen gas was set at 12 L/min. The drying temperature was 325° C. Samples (25 μL/well) were introduced via an auto sampler and reversed-phase chromatography was carried out with an XBridge OST C18 2.5 μm 2.1 mm×50 mm HPLC column using a flow rate of 300 μL/min at 55° C. The ion pair buffers consisted of A: 5 mM tributylammonium acetate (TBAA) in 20% acetonitrile and B: […] TBAA in 90% acetonitrile and the loading buffer was 25 mM TBAA in 25% Acetonitrile. Separation was performed on a 30% to 70% B in 9 min and then 80% B in 11 min gradient.
Quantitative analysis of oligonucleotide and internal standard by extracted ion chromatograms of the most abundant ions was performed using MSD ChemStation software. The results are expressed as half-time (T1/2) in the table below.

PTEN [4] = experiment: PTEN mRNA reduction in HeLa cells, dose response (Example 72); format: cell-based, human; conditions: percent inhibition of PTEN mRNA, 0.167-50 nM
Procedure: In accordance with the present disclosure, oligomeric compounds were synthesized and tested for their ability to reduce PTEN expression over a range of doses. Human HeLa cells were treated with the following oligomeric compounds. A dose comparison was evaluated with dose concentrations of 0.167, 0.5, 1.5, 5, 15 and 50 nM using methods described herein. Expression levels of PTEN were determined using real-time PCR and normalized to RIBOGREEN™ using methods described herein. The percent inhibition of PTEN mRNA was determined and the resulting dose-response curves were used to determine the IC50. The IC50s are listed below.

Substance: P-UfUfGfUfCfUfCfUfGfGfUfCfCfUfUfAfCfUfUfAeAe (antisense UUGUCUCUGGUCCUUACUUAA; sugars from the 5' end f19 e2, 5' {P}, backbone not given here) [ISIS 404320, modified ssRNA targeting PTEN]
- T1/2 [1]: 4 h
- EC50 (human PTEN; antisense strand duplexed with sense strand ISIS 341401, PTEN mRNA, read-out: EC50 (nM) siRNA): 0.5 nM
- EC50 (human PTEN; single stranded antisense compound, PTEN mRNA, read-out: EC50 (nM) ssRNA): 5 nM
- IC50 (PTEN [2]): 5.8 nM
- T1/2 Test 1 [3]: 4 min
- IC50 (PTEN [4]): 7.6 nM
